Laboratory results from patent publication US7964598B2 (The J. David Gladstone Institutes, priority 1995, dated 2011).
“And” between values parts separate entries of the source, which are not always exact repeats. Identical values can stand only once. “Also recorded” adds a separate entry of the source.

Columns and labels:
apoE4 = target: T1, apoE4 (Homo sapiens, UniProt P02649, C130R); test: Emulsion binding assay for domain interaction, apoE4
T1 construct: made in house
Procedure: (§1) Preparation of emulsion particles. Triolein (160 mg) and L-alpha-Phosphatidylcholine (40 mg) are combined and dried under nitrogen. After the addition of 8 mls of buffer (10 mM Tris, 100 mM KCl, 1 mM EDTA, pH 8.0), the mixture is sonicated in a water bath to obtain a heterogeneous mix of emulsion particles. The particles are harvested by ultracentrifugation (TLA 100.2 rotor, 30,000 rpm for 30 minutes) and the subsequent lipid cake is removed by tube slicing and resuspended in 100 μt 20 mM Phosphate Buffer (PB). Triolein and phospholipid content are measured and total emulsion particle concentration is determined.
(§2) Radiolabelling Freshly denatured and renatured Apolipoprotein E3 and E4 are radiolabelled using Bolton-Hunter Reagent [^125I] (ICN). Specific Activity is determined using Lowry method and Gamma 8000 counter.
(§3) Binding Affinity Assay. […] In glass tubes, 25 μg of protein (with iodinated tracer) was reduced with 1% β-mercaptoethanol. Two hundred and fifty μg of emulsion particles and 2.5 μl of compound (10 mM stock) were added and the final mixture was brought up to 250 μl with 20 mM phosphate buffer (PB). The reaction mixture was then incubated in a 37° C. water bath for 2 hours before being transferred to 1.5 ml ultracentrifuge tubes. Finally, 50 μl of 60% sucrose was mixed with the sample and 400 μl 20 mM PB was carefully layered on top. Using a TLA 100.2 rotor, the tube was spun at 30,000 rpm for 30 minutes and subsequently cut to separate the floating emulsion particle layer from the free protein at the bottom of the tube. These fractions were then combined with the respective half of the actual tube and counted using a Gamma-8000. […] Protein-only assays yielded 94.5-96.6% of protein accumulated in the bottom portion of the tube. In emulsion particle-only assays, 94% of emulsion particles accumulated in the top portion of the tube.
(§4) Preparation of Emulsion Particles and VLDL Binding Affinity Assay. VLDL-like emulsion particles were prepared using triolein (160 mg) and L-alpha-phosphatidylcholine (40 mg), as described. Dong and Weisgraber (1996) supra; and Dong et al. (1994) J. Biol. Chem. 269:22358-22365.

apoE3 = target: T2, apoE3 (Homo sapiens, UniProt P02649); test: Emulsion binding assay, apoE3
T2 construct: made in house
T2 sequence (P02649 19-317): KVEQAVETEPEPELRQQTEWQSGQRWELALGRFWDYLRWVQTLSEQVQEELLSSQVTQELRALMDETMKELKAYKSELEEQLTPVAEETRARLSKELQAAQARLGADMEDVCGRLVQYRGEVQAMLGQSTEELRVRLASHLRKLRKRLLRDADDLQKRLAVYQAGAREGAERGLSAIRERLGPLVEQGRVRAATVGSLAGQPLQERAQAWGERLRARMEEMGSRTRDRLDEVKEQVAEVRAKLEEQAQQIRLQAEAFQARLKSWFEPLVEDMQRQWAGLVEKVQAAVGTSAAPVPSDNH
Procedure: as §1, §2, §3, §4

Neuro-2a cells = test: Aβ-induced apoptosis (DNA fragmentation assay); format: cell-based, mouse
[1] = follow-up assay, second E4 control
[2] = initial assay, 2.5 μl of compound (10 mM stock) in 250 μl, 37° C. 2 hours

T1 sequence (P02649 19-317 C130R): as the sequence (P02649 19-317) above, with C112R counted along it

## O=S(=O)([O-])c1ccc2c(c1)c(Nc1ccc(S(=O)(=O)O)cc1)cc1c2nc2ccccc2[n+]1-c1ccccc1 [GIND-25, azocarmine-G]
apoE4
  apoE4 domain interaction / binding of apoE4 to VLDL-like emulsion particles: capable of blocking apoE4 domain interaction; also recorded: inhibited significantly
apoE4; follow-up assay
  E4 + cpd n = 3, % bound: 57%
  E4 + cpd n = 3, % free: 43%
apoE4; [1]
  E4 control, % bound: 46%
  E4 control, % free: 54%
apoE4; [2]
  E4 + cpd, % bound: 12% and 15%
  E4 + cpd, % free: 88% and 85%
apoE3
  binding of apoE3 to the emulsion particles: no significant effect
apoE3; follow-up assay
  E3 + compound, % bound: 30%
  E3 + compound, % free: 70%
Neuro-2a cells
  apoptosis, cells with medium alone or medium containing apoE3 plus Aβ1-42: no significant effect
Neuro-2a cells; apoE4 conditioned medium, Aβ1-42
  apoE4 potentiation of Aβ-induced apoptosis: block; also recorded: abolish
